According to patent publication EP3263567A1, “CARBOXAMIDE-SUBSTITUTED PYRAZOLES AND TRI(HETERO)ARYL-PYRAZOLES FOR USE IN METHODS OF TREATING AND / OR PREVENTING CARDIOVASCULAR DISEASES AND / OR COMORBIDITIES THEREOF” (AiCuris Anti-infective Cures GmbH, priority 2016, dated 2018):
≈ marks a conversion by molar mass, not a printed value.

Assays:
Solubility of compound A = assay type: physicochemical; settings: for solubility: aqueous media
[1] = 10-day dose-range-finding study in dogs; assay type: in vivo
Experimental: For the dog study, single dose data are available at 3, 30 and 100 mg/kg and repeated dose data (10 days of treatment) are available at 30, 100 and 2 x 50 mg/kg. At a single dose of 30 mg/kg, no further increase in exposure or Cmax is apparent. In the 10-day DRF study (LPT Study No. 31586) it was investigated whether after multiple dosing any accumulation would be apparent and therefore dose levels of 30 and 100 mg/kg were selected in this study. In addition, the highest daily dose (i.e. 100 mg/kg) was also administered as 50 mg/kg twice daily (8-h interval) to investigate possible beneficial effects of BID dosing on overall exposure.

Compound: O=C1NCc2c1ncnc2-c1cc(-c2cc(Cl)cc(OC(F)(F)F)c2)n(-c2cccnc2)n1 [Compound A, 4-[5-[3-Chloro-5-(trifluoromethoxy)phenyl]-1-(pyridin-3-yl)-1H-pyrazol-3-yl]-5,6-dihydro-7H-pyrrolo[3,4-d]pyrimidin-7-one]
- solubility (Solubility of compound A; pH 7.4, aqueous buffer): 50 to 70 µg/mL (≈ 106 to 148 µM)
- solubility (Solubility of compound A; simulated gastric fluid, pH 2.0): 400 µg/mL (≈ 846 µM)
- Solubility (test item description) (Solubility of compound A; description of the batch used in Example 3): soluble in water
- solubility in commonly used pharmaceutical excipients (Solubility of compound A; oils, cosolvents, surfactants): very low solubility
- exposure on split dosing ([1]; 100 mg/kg as 2 x 50 mg/kg 8 hours apart): small increase in exposure
- test item related findings ([1]; 30, 100 and 2 x 50 mg/kg, 10 days): No clear and consistent test item related findings
- exposure on dose increase ([1]; 30 to 100 mg/kg, 10 days): did not reveal a further increase in exposure
